Results as given in ChEMBL document CHEMBL2029344, “A new class of prolylcarboxypeptidase inhibitors, part 2: the aminocyclopentanes” (Bioorg Med Chem Lett, 2012).

How the values were obtained:
[1] = Clearance in mouse at 1 mg/kg, iv and 30 mg/kg, po; assay type: ADME, organism-based; conditions: in vivo
[2] = Oral bioavailability in mouse at 30 mg/kg; assay type: ADME, organism-based; conditions: in vivo
Mus musculus [3] = test: Dose normalized AUC in mouse at 1 mg/kg, iv and 30 mg/kg, po; assay type: ADME, organism-based; conditions: in vivo
Mus musculus [4] = test: Ex-vivo inhibition of PrCP in heat inactivated 100% plasma of C57 mouse assessed as target engagement calculated as [cmpd]plasma/([cmpd]plasma + Ki (heat inactivated plasma))x100 at 30 mg/kg, po after 20 hrs by FRET analysis; assay type: functional; design: scale not given: the % may be the effect or the level left
[5] = Ratio of drug uptake in brain to plasma of C57 mouse at 30 mg/kg, po after 20 hrs by LC/MS analysis; assay type: ADME, organism-based; design: dose 30 mg/kg, route oral; conditions: read-out: BPR
[6] = Volume of distribution in mouse at 1 mg/kg, iv and 30 mg/kg, po; assay type: ADME, organism-based; conditions: in vivo
Mus musculus [7] = test: Ex-vivo inhibition of PrCP in heat inactivated 100% plasma of C57 mouse assessed as target engagement at 30 mg/kg, po after 20 hrs by FRET analysis; assay type: functional; design: scale not given: the % may be the effect or the level left
[8] = target: T1, Lysosomal Pro-X carboxypeptidase (Mus musculus, UniProt Q7TMR0); test: Inhibition of mouse PrCP
T1 sequence (Q7TMR0 whole entry): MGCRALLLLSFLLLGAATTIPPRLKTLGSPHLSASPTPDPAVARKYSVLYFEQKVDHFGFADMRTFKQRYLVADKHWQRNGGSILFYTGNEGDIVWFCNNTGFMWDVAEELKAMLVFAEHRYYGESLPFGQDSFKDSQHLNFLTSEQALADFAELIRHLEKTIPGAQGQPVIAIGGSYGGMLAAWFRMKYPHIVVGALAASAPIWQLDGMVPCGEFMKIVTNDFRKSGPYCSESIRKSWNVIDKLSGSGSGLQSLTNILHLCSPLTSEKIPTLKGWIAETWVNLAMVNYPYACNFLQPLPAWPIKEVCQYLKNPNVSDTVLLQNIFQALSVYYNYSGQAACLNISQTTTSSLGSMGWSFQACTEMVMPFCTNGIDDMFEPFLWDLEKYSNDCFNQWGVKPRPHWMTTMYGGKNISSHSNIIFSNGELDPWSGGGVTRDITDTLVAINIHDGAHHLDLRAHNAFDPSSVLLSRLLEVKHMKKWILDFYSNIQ

[9] = Percentage unbound in 10% mouse plasma; assay type: ADME, cell-free
[10] = Percentage unbound in 10% human plasma; assay type: ADME, cell-free
[11] = Stability in human liver microsomes after 30 mins by LC/MS analysis; assay type: ADME, Microsome; conditions: read-out: Stability
Mus musculus [12] = test: Ex-vivo inhibition of po dosed mouse PrCP by FRET analysis in presence of heat inactivated 100% plasma; assay type: functional, organism-based
Mus musculus [13] = test: Ex-vivo inhibition of po dosed mouse PrCP by FRET analysis in presence of heat inactivated 25% plasma; assay type: functional, organism-based
Mus musculus [14] = test: Ex-vivo inhibition of po dosed mouse PrCP by FRET analysis in absence of plasma; assay type: functional, organism-based
[15] = Stability in mouse liver microsomes after 30 mins by LC/MS analysis; assay type: ADME, Microsome; conditions: read-out: Stability
Mus musculus [16] = test: Toxicity in po dosed C57 mouse; assay type: organism-based; conditions: in vivo
Mus musculus [17] = test: Ex-vivo inhibition of PrCP in heat inactivated 100% plasma of C57 mouse assessed as target engagement calculated as [cmpd]plasma/([cmpd]plasma + Ki (heat inactivated plasma))x100 at 10 mg/kg, po after 20 hrs by FRET analysis; assay type: functional; design: scale not given: the % may be the effect or the level left
[18] = Apparent permeability across pig LLC-PK1 cells at 1 uM; assay type: ADME, cell-based, Sus scrofa
Mus musculus [19] = test: Ex-vivo inhibition of PrCP in heat inactivated 100% plasma of C57 mouse assessed as target engagement at 10 mg/kg, po after 20 hrs by FRET analysis; assay type: functional; design: scale not given: the % may be the effect or the level left
[20] = Drug uptake in C57 mouse brain at 10 mg/kg, po after 20 hrs by LC/MS analysis; assay type: ADME, organism-based; design: dose 10 mg/kg, route oral; conditions: read-out: Drug uptake
[21] = Drug uptake in C57 mouse plasma at 10 mg/kg, po after 20 hrs by LC/MS analysis; assay type: ADME, organism-based; design: dose 10 mg/kg, route oral
[22] = Ratio of drug uptake in brain to plasma of C57 mouse at 10 mg/kg, po after 20 hrs by LC/MS analysis; assay type: ADME, organism-based; design: dose 10 mg/kg, route oral; conditions: read-out: BPR
Mus musculus [23] = test: Ex-vivo inhibition of PrCP in heat inactivated 100% plasma of po dosed C57 mouse assessed as target engagement after 20 hrs by FRET analysis; assay type: functional; design: scale not given: the % may be the effect or the level left

Compound	IC50 [8]	fraction unbound [9]	fraction unbound [10]	remaining at 0.5 h [11]	Ki (Mus musculus [12])	Ki (Mus musculus [13])	Ki (Mus musculus [14])	remaining at 0.5 h [15]	further results
Cc1cc(C2CCN(C(=O)[C@@H]3CN(C(C)(C)C)C[C@H]3c3ccc(F)cc3F)CC2)n(-c2cc(Cl)ccc2Cl)n1	–	–	–	–	–	–	–	–	clearance [1]: 48 mL/min/kg; bioavailability [2]: 31%; AUC/dose (Mus musculus [3]): 0.19 µM·kg·h/mg; Activity (Mus musculus [4]): 99.8%; Kp at 20 h [5]: 1.35; Vd [6]: 13 L/kg; Activity (Mus musculus [7]): 97.7%
Cc1nc(C2CCN(C(=O)[C@@H]3CN(C(C)(C)C)C[C@H]3c3ccc(F)cc3F)CC2)n(-c2ccc(Cl)c(C)c2)n1	–	–	–	–	–	–	–	–	clearance [1]: 128 mL/min/kg; bioavailability [2]: 20%; AUC/dose (Mus musculus [3]): 0.05 µM·kg·h/mg; Vd [6]: 17 L/kg
Cc1nc(C2CCN(C(=O)[C@@H]3C[C@@H](N(C)C)C[C@H]3c3ccc(F)cc3F)CC2)n(-c2ccc(Cl)c(C)c2)n1	41 nM	0.32	0.22	–	–	–	–	–	–
Cc1nc(C2CCN(C(=O)[C@@H]3C[C@H](N(C)C)C[C@H]3c3ccc(F)cc3F)CC2)n(-c2ccc(Cl)c(C)c2)n1	65 nM	–	–	–	–	–	–	–	–
Cc1nc(C2CCN(C(=O)[C@@H]3C[C@@](C)(N(C)C)C[C@H]3c3ccc(F)cc3F)CC2)n(-c2ccc(Cl)c(C)c2)n1	2.5 nM	0.22	0.05	27%	16.6 nM	6.3 nM	2.9 nM	47%	–
Cc1nc(C2CCN(C(=O)[C@@H]3C[C@@](C)(N(C)C)C[C@H]3c3ccc(F)cc3F)CC2)n(-c2cc(Cl)ccc2Cl)n1	2 nM	0.14	0.33	18%	1 nM	1 nM	1 nM	6%	–
Cc1cc(C2CCN(C(=O)[C@@H]3C[C@@](C)(N(C)C)C[C@H]3c3ccc(F)cc3F)CC2)n(-c2cc(Cl)ccc2Cl)n1	0.4 nM	0.013	0.087	12%	2.1 nM	0.9 nM	0.5 nM	33.6%	–
Cc1cc(C2CCN(C(=O)[C@@H]3C[C@@](C)(N)C[C@H]3c3ccc(F)cc3F)CC2)n(-c2cc(Cl)ccc2Cl)n1	0.9 nM	0.02	0.071	39%	5.2 nM	2.1 nM	1 nM	78%	–
Cc1cc(C2CCN(C(=O)[C@@H]3C[C@@](C)(N(C)C)C[C@H]3c3ccc(F)cc3F)CC2)n(-c2ccc(F)c(Cl)c2)n1	0.5 nM	0.035	0.064	–	4.5 nM	1.5 nM	0.6 nM	–	–
CN(C)[C@]1(C)C[C@H](C(=O)N2CCC(c3ccnn3-c3ccc(F)c(Cl)c3)CC2)[C@@H](c2ccc(F)cc2F)C1	–	0.091	0.144	1%	–	–	–	23%	Activity (Mus musculus [16]): Non-toxic; Activity (Mus musculus [17]): 99.6%; Papp at 1 µM [18]: 23.1 ×10⁻⁶ cm/s; Activity (Mus musculus [19]): >=100%; concentration at 20 h [20]: 26 nM; concentration at 20 h [21]: 305 nM; Kp at 20 h [22]: 0.09; Activity (Mus musculus [23]): 38%
CN(C)[C@@]1(C)C[C@H](C(=O)N2CCC(c3ccnn3-c3ccc(F)c(Cl)c3)CC2)[C@@H](c2ccc(F)cc2F)C1	–	0.132	0.104	2%	–	–	–	34%	–
C[C@]1(N)C[C@H](C(=O)N2CCC(c3ccnn3-c3ccc(F)c(Cl)c3)CC2)[C@@H](c2ccc(F)cc2F)C1	2.6 nM	0.061	0.1	33%	–	–	–	89%	–

The next lines start with results.

IC50 [8]	fraction unbound [9]	fraction unbound [10]	remaining at 0.5 h [11]	Ki (Mus musculus [12])	Ki (Mus musculus [13])	Ki (Mus musculus [14])	remaining at 0.5 h [15]	Compound	further results
85.1 nM	0.102	0.076	78%	73.9 nM	26.7 nM	11 nM	72%	Cc1nc(C2CCN(C(=O)[C@@H]3C[C@@](C)(N)C[C@H]3c3ccc(F)cc3F)CC2)n(-c2ccc(Cl)c(C)c2)n1	–
4.1 nM	0.091	0.245	79%	8 nM	4.7 nM	3.7 nM	79%	Cc1nc(C2CCN(C(=O)[C@@H]3C[C@@](C)(N)C[C@H]3c3ccc(F)cc3F)CC2)n(-c2cc(Cl)ccc2Cl)n1	–
–	0.22	0.32	–	1.1 nM	1.1 nM	1.1 nM	–	Cc1nc(C2CCN(C(=O)[C@@H]3C[C@@](C)(N(C)C)C[C@H]3c3ccc(F)cc3F)CC2)n(-c2ccc(F)c(Cl)c2)n1	–
11.2 nM	0.127	0.205	–	4.6 nM	4.6 nM	4.6 nM	–	Cc1nc(C2CCN(C(=O)[C@@H]3C[C@@](C)(N)C[C@H]3c3ccc(F)cc3F)CC2)n(-c2ccc(F)c(Cl)c2)n1	–
47.8 nM	–	–	91%	–	–	–	93%	Cc1nc(C2CCN(C(=O)[C@@H]3C[C@](C)(N)C[C@H]3c3ccc(F)cc3F)CC2)n(-c2ccc(F)c(Cl)c2)n1	–
16 nM	0.15	0.21	–	–	–	–	–	C[C@@]1(N)C[C@@H](C(=O)N2CCC(c3ncnn3-c3ccc(F)c(Cl)c3)CC2)[C@H](c2ccc(F)cc2F)C1	–
–	0.043	0.069	–	66.1 nM	24.7 nM	10.9 nM	–	Cc1cc(C2CCN(C(=O)[C@@H]3C[C@](C)(N)C[C@H]3c3ccc(F)cc3F)CC2)n(-c2ccc(F)c(Cl)c2)n1	–
